Source: US6593342B1, “Pharmaceutical compositions comprising 2-quinolones” (Laboratoire L. Lafon, priority 1998, dated 2003)

What was measured:
Assay type in all cases: cell-based
A-427 = assay: MTT test, A-427; conditions: Homo sapiens, 10^−5 M, 72 hours, control = 100%, mean ± SEM, read-out: average optical density (MTT), percentage relative to control
Protocol: (§1) The influence of the compounds of formulae (I) and (Ia) on non-clonogenic cells was evaluated with the aid of the MTT calorimetric test.
(§2) The principle of the MTT test is based on the mitochondrial reduction, by the metabolically active live cells, of the yellow-colored product MTT (3-(4,5-dimethylthiazol-2-yl)-2,5-diphenyltetrazolium bromide) to a blue-colored product, formazan. The amount of formazan thus obtained is directly proportional to the amount of live cells present in the culture well(s). This amount of formazan is measured by spectrophotometry.
(§3) The cell lines are maintained as a monolayer culture at 37° C. in stoppered culture dishes containing MEM 25 MM HEPES (Minimum Essential Medium) base medium. This medium is suited to the growth of a range of various mammalian diploid or primary cells. This medium is then supplemented with:
(§4) an amount of 5% of FCS (Foetal Calf Serum) decomplemented at 56° C. for 1 hour,
(§5) 0.6 mg/ml of L-glutamine,
(§6) 200 μg/ml of streptomycin,
(§7) The 12 human cancer cell lines which were used were obtained from the American Type Culture Collection (ATCC, Rockville, Md., USA). These 12 cell lines are:
A549 (code ATCC: CCL-185) and A-427 (code ATCC: HTB-53) which are two non-small-cell lung cancers,
(§8) Experimentally: 100 μl of a cell suspension containing 20 000 to 50 000 (depending on the cell type used) cells/ml of culture medium are inoculated in 96-well flat-bottomed multi-well plates and are incubated at 37° C., under an atmosphere comprising 5% CO2 and 70% humidity. After incubation for 24 hours, the culture medium is replaced with 100 μl of fresh medium containing either the various test compounds at concentrations ranging from 10^−5 to 10^−10 M or the solvent used to dissolve the test products (control condition). After incubation for 72 hours under the above conditions, the culture medium is replaced with 100 μl of a yellowish solution of MTT dissolved at a rate of 1 mg/ml in RPMI 1640. The microplates are reincubated for 3 hours at 37° C. and are then centrifuged for 10 minutes at 400×g. The yellowish solution of MTT is removed and the blue formazan crystals formed in the cell are dissolved in 100 μl of DMSO. The microplates are then shaken for 5 minutes. The intensity of the resulting blue coloration, and thus of the conversion of the yellow product MTT into blue formazan by the cells that are still alive at the end of the experiment, is quantified by spectrophotometry using a Dynatech Immunoassay System machine at wavelengths of 570 nm and 630 nm corresponding, respectively, to the maximum absorption wavelengths of formazan and to the background noise. Software incorporated in the spectrophotometer calculates the average optical density values and the standard deviation (SD) and standard error of mean (SEM) values.
(§9) By way of example, the results of the average optical density, expressed as a percentage relative to the average optical density measured under the control condition (set equal to 100%), obtained at a concentration of 10^−5 M on the 12 abovementioned tumor cell lines are given in Table II.

J82 = assay: MTT test, J82; conditions: Homo sapiens, 10^−5 M, 72 hours, control = 100%, mean ± SEM, read-out: average optical density (MTT), percentage relative to control
Protocol: as §1, §2, §3, §4, §5, §6, §7
J82 (code ATCC: HTB-1) and T24 (code ATCC: HTB-4) which are two bladder cancers,
as §8, §9

U-87MG = assay: MTT test, U-87MG; conditions: Homo sapiens, 10^−5 M, 72 hours, control = 100%, mean ± SEM, read-out: average optical density (MTT), percentage relative to control
Protocol: as §1, §2, §3, §4, §5, §6, §7
U-373MG (code ATCC: HTB-17) and U-87MG (code ATCC: HTB-14) which are two glioblastomas,
as §8, §9

T-47D = assay: MTT test, T-47D; conditions: Homo sapiens, T47D, 10^−5 M, 72 hours, control = 100%, mean ± SEM, read-out: average optical density (MTT), percentage relative to control
Protocol: as §1, §2, §3, §4, §5, §6, §7
(§10) T-47D (code ATCC: HTB-133) and MCF7 (code ATCC: HTB-22) which are two breast cancers,
as §8, §9

MCF7 = assay: MTT test, MCF7; conditions: Homo sapiens, 10^−5 M, 72 hours, control = 100%, mean ± SEM, read-out: average optical density (MTT), percentage relative to control
Protocol: as §1, §2, §3, §4, §5, §6, §7, §10, §8, §9

SMILES | viability at 10 µM (A-427) [%] | viability at 10 µM (J82) [%] | viability at 10 µM (U-87MG) [%] | viability at 10 µM (T-47D) [%] | viability at 10 µM (MCF7) [%]
COc1ccc(-c2cc3c(OC)cc(OC)cc3[nH]c2=O)cc1 [CRL8246, 5,7-Dimethoxy-3-(4-methoxyphenyl)-1,2-dihydro-2-quinolinone] | 101 ± 0.9 | 87.6 ± 2.2 | 92.1 ± 1.5 | 96 ± 2.6 | 98.1 ± 1.4
COc1ccc(-c2cc3c(OC)cc(OC)cc3n(CCC#N)c2=O)cc1 [CRL8247, 3-[5,7-Dimethoxy-3-(4-methoxyphenyl)-2-oxo-1,2-dihydro-1-quinolinyl]propanenitrile] | 57 ± 1.5 | 55 ± 2.3 | 59 ± 2.3 | 58.3 ± 1.4 | 78.9 ± 1.1
COc1ccc(-c2cc3c(OC)cc(OC)cc3n(CCc3nnn[nH]3)c2=O)cc1 [CRL8256, 1-[2-(1H-1,2,3,4-Tetrazol-5-yl)ethyl]-5,7-dimethoxy-3-(4-methoxyphenyl)-1,2-dihydro-2-quinolinone] | 81.1 ± 2.9 | 77.8 ± 0.8 | 84.7 ± 1.7 | 77.5 ± 3.6 | 81.8 ± 1.6
CCN(CC)C(=O)CCn1c(=O)c(-c2ccc(OC)cc2)cc2c(OC)cc(OC)cc21 [CRL8283, N,N-Diethyl-3-[5,7-dimethoxy-3-(4-methoxy-phenyl)-2-oxo-1,2-dihydro-1-quinolinyl]propanamide] | 73.1 ± 1.7 | 71.6 ± 2.2 | 69.9 ± 3.4 | 81 ± 3.1 | 76.2 ± 0.9
CCN(CC)C(=O)Cn1c(=O)c(-c2ccc(OC)cc2)cc2c(OC)cc(OC)cc21 [CRL8315, N,N-Diethyl-2-[5,7-dimethoxy-3-(4-methoxy-phenyl)-2-oxo-1,2-dihydro-1-quinolinyl]acetamide] | 92.6 ± 2.1 | 65.9 ± 1.3 | 87.6 ± 4.5 | 101 ± 2.5 | 96.2 ± 1.7
COc1ccc(-c2cc3c(OC)cc(OC)cc3n(CCN(C)C)c2=O)cc1 [CRL8316, 1-[2-(Dimethylamino)ethyl]-5,7-dimethoxy-3-(4-methoxyphenyl)-1,2-dihydro-2-quinolinone] | 79.1 ± 4.8 | 26.9 ± 0.9 | 74.3 ± 1.4 | 68.8 ± 2.4 | 78.9 ± 4
